Assay results taken from ChEMBL document CHEMBL1153980, “Synthesis and anti-inflammatory activity of the major metabolites of imrecoxib” (Bioorg Med Chem Lett, 2009).

Assays:
Rattus norvegicus [1] = experiment: Antiinflammatory activity in rat assessed as inhibition of carrageenan induced paw edema at 10 mg/kg after 3 hrs relative to control; assay type: functional
Rattus norvegicus [2] = experiment: Antiinflammatory activity in rat assessed as inhibition of carrageenan induced paw edema at 10 mg/kg after 1 hr relative to control; assay type: functional
Rattus norvegicus [3] = experiment: Antiinflammatory activity in rat assessed as inhibition of carrageenan induced paw edema at 10 mg/kg after 4 hrs relative to control; assay type: functional
Rattus norvegicus [4] = experiment: Antiinflammatory activity in rat assessed as inhibition of carrageenan induced paw edema at 10 mg/kg after 2 hrs relative to control; assay type: functional
[5] = biological target: T1, Prostaglandin G/H synthase 1 (Mus musculus, UniProt P22437); experiment: Inhibition of COX1 in mouse peritoneal macrophages
T1 sequence (P22437 whole entry): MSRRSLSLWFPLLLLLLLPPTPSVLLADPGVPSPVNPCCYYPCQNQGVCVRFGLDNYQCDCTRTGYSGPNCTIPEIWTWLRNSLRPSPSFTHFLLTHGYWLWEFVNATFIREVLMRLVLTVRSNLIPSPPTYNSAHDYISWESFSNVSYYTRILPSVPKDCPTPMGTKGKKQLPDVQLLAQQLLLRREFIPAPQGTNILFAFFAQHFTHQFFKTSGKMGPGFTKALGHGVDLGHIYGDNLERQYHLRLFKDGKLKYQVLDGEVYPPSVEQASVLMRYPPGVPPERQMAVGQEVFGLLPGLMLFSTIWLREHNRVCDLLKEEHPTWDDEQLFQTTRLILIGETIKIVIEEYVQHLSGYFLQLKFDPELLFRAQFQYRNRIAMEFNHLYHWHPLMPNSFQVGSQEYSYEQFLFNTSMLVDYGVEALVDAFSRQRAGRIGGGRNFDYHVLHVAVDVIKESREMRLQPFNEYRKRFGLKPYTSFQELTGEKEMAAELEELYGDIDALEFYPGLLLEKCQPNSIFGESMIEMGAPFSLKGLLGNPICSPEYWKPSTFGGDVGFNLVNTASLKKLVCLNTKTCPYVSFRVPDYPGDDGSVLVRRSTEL

Mus musculus = species: Mus musculus; experiment: Selectivity index, ratio of IC50 for COX1 to IC50 for COX2 in mouse peritoneal macrophages
[6] = biological target: T2, Prostaglandin G/H synthase 2 (Mus musculus, UniProt Q05769); experiment: Inhibition of COX2 in mouse peritoneal macrophages
T2 sequence (Q05769 whole entry): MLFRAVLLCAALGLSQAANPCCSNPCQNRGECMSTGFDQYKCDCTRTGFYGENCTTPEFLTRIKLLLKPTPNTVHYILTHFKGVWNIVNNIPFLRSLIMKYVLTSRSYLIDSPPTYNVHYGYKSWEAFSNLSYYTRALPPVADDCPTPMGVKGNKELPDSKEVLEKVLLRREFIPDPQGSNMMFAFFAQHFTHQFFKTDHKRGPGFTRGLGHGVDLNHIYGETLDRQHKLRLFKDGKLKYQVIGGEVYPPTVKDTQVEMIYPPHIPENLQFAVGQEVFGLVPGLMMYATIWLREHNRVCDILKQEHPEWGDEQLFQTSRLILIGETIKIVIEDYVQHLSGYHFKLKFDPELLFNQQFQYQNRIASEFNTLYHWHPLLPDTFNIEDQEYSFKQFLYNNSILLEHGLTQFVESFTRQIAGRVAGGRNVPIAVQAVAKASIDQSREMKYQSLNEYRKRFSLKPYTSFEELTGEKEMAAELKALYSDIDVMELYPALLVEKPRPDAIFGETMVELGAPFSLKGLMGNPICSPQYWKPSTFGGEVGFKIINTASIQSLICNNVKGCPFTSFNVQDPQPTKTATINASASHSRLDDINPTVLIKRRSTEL

[7] = biological target: Prostaglandin G/H synthase 1 (Mus musculus, UniProt P22437); experiment: Inhibition of calcimycin-induced COX1 activity

SMILES | inhibition in vivo at 10 mg/kg (Rattus norvegicus [1]) [%] | inhibition in vivo at 10 mg/kg (Rattus norvegicus [2]) [%] | inhibition in vivo at 10 mg/kg (Rattus norvegicus [3]) [%] | inhibition in vivo at 10 mg/kg (Rattus norvegicus [4]) [%] | IC50 [5] [nM] | Ratio IC50 (Mus musculus) | IC50 [6] [nM] | IC50 [7] [nM]
Cc1ccc(-c2cc(C(F)(F)F)nn2-c2ccc(S(N)(=O)=O)cc2)cc1 [CELECOXIB] | 44.7 | 23.5 | 49.3 | 36.6 | – | – | – | –
CCCN1CC(c2ccc(S(C)(=O)=O)cc2)=C(c2ccc(C)cc2)C1=O [IMRECOXIB] | 50.4 | 31.3 | 50.4 | 39.5 | 115 | 6.4 | 18 | –
CCCN1CC(c2ccc(S(C)(=O)=O)cc2)=C(c2ccc(CO)cc2)C1=O | 56.1 | 26.5 | 63.9 | 46 | 87 | 6.2 | 14 | –
CCCN1CC(c2ccc(S(C)(=O)=O)cc2)=C(c2ccc(C(=O)O)cc2)C1=O | 55.5 | 45.4 | 65.9 | 51.9 | – | 6.8 | 410 | 2780
